Test results taken from article PMC3703888, “Integration of Different “-omics” Technologies Identifies Inhibition of the IGF1R-Akt-mTOR Signaling Cascade Involved in the Cytotoxic Effect of Shikonin against Leukemia Cells” (Evidence-based Complementary and Alternative Medicine : eCAM, 2013).

Tested on: U937 leukemia cells
Experiment: Resazurin reduction assay (cytotoxicity)
Assay type: cell-based
Conditions: Homo sapiens, U-937, 24 h treatment, read-out: IC50 (inhibition of U937 proliferation by 50%)
Experimental: Resazurin reduction assay was performed to assess cytotoxicity of shikonin toward U937 cells. The assay is based on reduction of the indicator dye, resazurin, to the highly fluorescent resorufin by viable cells. Nonviable cells rapidly lose the metabolic capacity to reduce resazurin and thus produce no fluorescent signal. Briefly, aliquots of 2 × 10^4 U937 cells per well were seeded in 96-well plates in a total volume of 100 μL. Shikonin was immediately added in varying concentrations in an additional 100 μL of culture medium to obtain a total volume of 200 μL/well. After 24 h, 20 μL resazurin (Sigma-Aldrich, Germany) 0.01% w/v in ddH2O was added to each well and the plates were incubated at 37°C for 4 h. Fluorescence was measured on an Infinite M2000 Pro plate reader (Tecan, Germany) using an excitation wavelength of 544 nm and an emission wavelength of 590 nm. Each assay was done at least two times, with six replicates each. The viability was evaluated based on a comparison with untreated cells. IC50 value represents the shikonin concentrations required to inhibit 50% of cell proliferation and was calculated from a calibration curve by linear regression using Microsoft Excel.

Compound `CC(C)=CC[C@@H](O)C1=CC(=O)c2c(O)ccc(O)c2C1=O` [shikonin] has an IC50 of 300 nM.
